Data: patent US8871749B2, “Bone-transplant or bone-filling composition comprising a dihydroxybenzoic acid derivative” (Cellsafe Co., Ltd., priority 2010, dated 2014)
In brackets after ≈: the same amount, converted by molar mass.

Assays:
Cytotoxicity test (MTT) = settings: mouse, L929 cells
Description: (§1) In order to evaluate the cytotoxicities of the compounds designed in Example 1, L929 cells (RIKEN Cell Bank, Japan) (1×10^4 cells per well) were placed on each well of a 96-well plate and then cultured for 12 hours. The cells were treated with each compound in predetermined concentrations and then cultured for 48 hours. After removing the medium, a MTT (3-(4,5-dimethylthiazol-2-yl)-2,5-diphenyltetrazolium bromide) solution (100 μl per well) was added to the cells, which were then incubated for 4 hours. After removing the supernatant, each well was treated with a DMSO solution (100 μl per well) and then incubated at room temperature for 10 minutes for extraction. An absorbance at 550 nm was measured with an ELISA reader (Bio-Tek instrument). The CC50 (Cytotoxic Concentration 50%) values were determined by comparing with a negative control (no treatment).

MC3T3-E1 cells [1] = assay: In-vitro bone nodules of osteoblasts (calcium accumulation); format: cell-based; settings: 27 days; for activity at 5 µg/mL: Mus musculus, 648 h, compound 5 μg/ml, relative to negative control (100); for Calcium accumulation in the cells (in words): 5 μg/ml
Description: MC3T3-E1 cells (RIKEN Cell Bank, Japan) (2×10^3 cells per well) as an osteoblast cell line were placed on each well of a 24-well plate and then cultured for 24 hours. The medium was changed with α-MEM supplemented with β-glycerophosphate and ascorbic acid as a differentiation-inducing agent for osteoblasts. Each compound of Example 1 was added to the culture medium in the final concentration of 5 μg/ml. The plate containing the cells was cultured for 27 days while changing the medium every three days or every four days. […] No treatment was made to the negative control. In order to quantify the amount of calcium accumulated in the cells, the cells were washed with a biological saline, and then calcium (Ca) was extracted with a 0.5N HCl solution for 6 hours on an agitator. The extracted solution (100 μl) was reacted with a Calcium Reagent (Sigma, USA) at room temperature for 5 minutes. […] The amount of calcium accumulated in the cells was calculated by obtaining relative absorbance differences through comparing with a negative control (no treatment).

MC3T3-E1 cells [2] = assay: Alkaline phosphatase (ALP) activity of osteoblasts; format: cell-based; settings: 7 days; for activity at 5 µg/mL: Mus musculus, 168 h, compound 5 μg/ml, relative to negative control (100); for ALP activity (in words): 5 μg/ml
Description: After removing the medium, α-MEM supplemented with β-glycerophosphate and ascorbic acid were added thereto as a differentiation-inducing agent for osteoblasts. Each compound of Example 1 was added to the culture medium in the final concentration of 5 μg/ml. The plate containing the cells was cultured for 7 days. 100 μl of a cell lysis buffer (Sigma, Catalog number: MCL1) was added to the cells, which were then incubated at 37° C. for 30 minutes. The resulting mixture (50 μl) was reacted with p-nitrophenyl phosphate as a substrate in a 0.1N glycine-NaOH buffer (pH 9.8), at 37° C. for 30 minutes. Each amount of p-nitrophenol released from the substrate was quantified by measuring an absorbance at 405 nm using an ELISA reader (Bio-Tek instrument). […] The alkaline phosphatase activities were calculated by obtaining relative absorbance differences through comparing with a negative control (no treatment).

[3] = system: mandiblar molars transplanted into the kidney of female mouse (C57BL/6); assay: Alveolar bone formation activity, compound-soaked collagen bead in mandiblar molar transplanted into mouse kidney; format: in vivo; settings: for response vs control in vivo at 1000 µg/mL: 504 h, collagen bead dipped in 1 mg/ml solution (1-2 μg compound), molar transplanted into mouse kidney, after 3 weeks, stained area vs negative control (100%); for Alveolar bone formation activity (in words): mouse kidney transplant of molar with compound bead, 3 weeks
Description: Each compound of Example 1 was dissolved in a sterile biological saline to obtain a solution having a concentration of 1 mg/ml. Collagen bead (diameter: 1×2 mm, Gibco) used as a bone-grafting material was dipped into each solution at 37° C. for 45 minutes. Each resulting wet bead includes about 1-2 μl of the solution, and therefore 1-2 μg of each compound. Mandiblar molars before tooth-root formation were isolated from mice. The wet bead was inserted in the center of dental pulp of each isolated mandiblar molar, using tweezers. The resulting mandiblar molars were transplanted into the kidney of female mouse (C57BL/6). After 3 weeks, the growing molar teeth were fixed with a formalin solution and then stained with a Morse's solution. The stained sites were visualized under a microscope (Olympus IX71) and then the area was measured with an imageWarp software (London, England). The effects of the compounds on alveolar bone formation were evaluated by comparing with the negative control (100%).

in vitro = settings: mouse
Description: as §1

| SMILES | CC50 at 48 h (Cytotoxicity test (MTT)) | activity at 5 µg/mL (MC3T3-E1 cells [1]) | activity at 5 µg/mL (MC3T3-E1 cells [2]) | response vs control in vivo at 1000 µg/mL [3] | CC50 at 48 h (in vitro) | Calcium accumulation in the cells (in words) (MC3T3-E1 cells [1]) | ALP activity (in words) (MC3T3-E1 cells [2]) | Alveolar bone formation activity (in words) [3] |
| --- | --- | --- | --- | --- | --- | --- | --- | --- |
| O=C(O)c1cccc(O)c1O [NP21, 2,3-dihydroxybenzoic acid] | 150 µg/mL (≈ 973 µM) | 132% | 147% | 110% | – | – | – | – |
| O=C(O)c1ccc(O)cc1O [NP22, 2,4-dihydroxybenzoic acid] | – | 159% | 153% | 121% | 150 µg/mL (≈ 973 µM) | – | – | – |
| O=C(O)c1cc(O)ccc1O [NP23, 2,5-dihydroxybenzoic acid] | 200 µg/mL (≈ 1300 µM) | 163% | 152% | 119% | – | – | – | – |
| CCOC(=O)c1ccc(O)c(O)c1 [NP31, ethyl 3,4-dihydroxybenzoate] | 100 µg/mL (≈ 549 µM) | 180% | 200% | 150% | – | – | – | – |
| O=C(O)c1cc(O)cc(O)c1 [NP32, 3,5-dihydroxybenzoic acid] | 150 µg/mL (≈ 973 µM) | 163% | 155% | 123% | – | – | – | – |
| CCOC(=O)c1ccc(O)cc1O [NP33, ethyl 2,4-dihydroxybenzoate] | 100 µg/mL (≈ 549 µM) | 420% | 430% | 300% | – | most excellent calcium accumulation in the cells | most excellent ALP activities | most excellent alveolar bone formation activities |
| COC(=O)c1ccc(O)cc1O [NP34, methyl 2,4-dihydroxybenzoate] | 150 µg/mL (≈ 892 µM) | 158% | 149% | 130% | – | – | – | – |
| CCOC(=O)c1cc(O)ccc1O [NP35, ethyl 2,5-dihydroxybenzoate] | 150 µg/mL (≈ 823 µM) | 580% | 560% | 450% | – | most excellent calcium accumulation in the cells | most excellent ALP activities | most excellent alveolar bone formation activities |
| CCOC(=O)c1c(O)cccc1O [NP36, ethyl 2,6-dihydroxybenzoate] | 200 µg/mL (≈ 1100 µM) | 160% | 157% | 121% | – | – | – | – |
| CCOC(=O)c1cc(O)cc(O)c1 [NP37, ethyl 3,5-dihydroxybenzoate] | 150 µg/mL (≈ 823 µM) | 159% | 153% | 122% | – | – | – | – |
